Measured values taken from the Deep4Chem optical property database.
One block for each compound: values may come before it.

Experiment: solvent given as SMILES
[1] = in O=P(c1ccccc1)(c1ccccc1)c1ccccc1Oc1ccccc1P(=O)(c1ccccc1)c1ccccc1

SMILES: CC(C)(C)[Si](C)(C)c1ccc([Si](C)(C)C(C)(C)C)c2ccccc12
emission maximum (in C1CCCCC1): 335 nm

SMILES: COc1ccc(-n2nc(C(=O)c3ccc(Cl)cc3)c(N3CCCC3)n2)cc1
emission maximum (in CC#N): 421 nm

SMILES: Cc1cc2c(cc1[N+](=O)[O-])NC(=O)CC(=O)N2
emission maximum (in CS(C)=O): 350 nm

SMILES: CCCCCCOc1ccc(C#Cc2ccc(-c3ccc(-c4ccc(C#Cc5ccc(OCCCCCC)c(OCCCCCC)c5)s4)c4nsnc34)s2)cc1OCCCCCC
emission maximum (in C1CCCCC1): 600 nm
emission maximum (in CCOC(C)=O): 635 nm
emission maximum (in CN(C)C=O): 666 nm
emission maximum (in COc1ccccc1): 636 nm
emission maximum (in Cc1ccccc1): 620 nm
emission maximum (in ClC(Cl)Cl): 648 nm
emission maximum (in ClCCCl): 650 nm
emission maximum (in ClCCl): 649 nm

SMILES: CC1(C)c2cc(/C=C/c3nc(/C=C/c4ccc5c(c4)C(C)(C)c4cc(N(c6ccccc6)c6ccccc6)ccc4-5)nc(/C=C/c4ccc5c(c4)C(C)(C)c4cc(N(c6ccccc6)c6ccccc6)ccc4-5)n3)ccc2-c2ccc(N(c3ccccc3)c3ccccc3)cc21
emission maximum (in C1CCOC1): 555 nm

SMILES: CC(C)(C)c1ccc2c(c1)c1cc(C(C)(C)C)ccc1n2-c1ccc(S(=O)(=O)c2cccc(S(=O)(=O)c3ccc(-n4c5ccc(C(C)(C)C)cc5c5cc(C(C)(C)C)ccc54)cc3)c2)cc1
emission maximum (in Cc1ccccc1): 422 nm

SMILES: Cc1cc2c3ccccc3n(C)c2c2c1c1ccccc1n2C
emission maximum (in ClCCl): 391 nm

SMILES: CN1C(=CC2=C([O-])C(=CC3=[N+](C)c4ccccc4C3(C)C)C2=O)C(C)(C)c2ccccc21
emission maximum (in ClC(Cl)Cl): 643 nm

SMILES: COC(=O)/C(C#N)=c1\s/c(=c2/s/c(=C(/C#N)C(=O)OC)c3cc(-c4ccc(C(F)(F)F)cc4)sc23)c2sc(-c3ccc(C(F)(F)F)cc3)cc12
emission maximum (in Cc1ccccc1): 625 nm

SMILES: O=c1oc2ccc3cccc4c(O)c(Cl)c(c1Cl)c2c34
emission maximum (in CC1CCCO1): 500 nm

SMILES: CC(=O)O[B-]1(OC(C)=O)OC(/C=C/c2cccc3ccccc23)=CC(/C=C/c2cccc3ccccc23)=[O+]1
emission maximum (in C1CCOC1): 539 nm
emission maximum (in CC#N): 569 nm
emission maximum (in CC(C)=O): 553 nm
emission maximum (in CS(C)=O): 574 nm
emission maximum (in Cc1ccccc1): 529 nm
emission maximum (in ClC(Cl)Cl): 551 nm
emission maximum (in ClCCl): 554 nm

SMILES: CC1(C)c2ccccc2N(c2ccc3c(c2)Oc2ccccc2S3(=O)=O)c2ccccc21
emission maximum (in Cc1ccccc1): 451 nm
emission maximum [1]: 458 nm

SMILES: COc1ccc2n1[B-](F)(F)[N+]1=C(SC#N)C=CC1=C2c1ccccc1
emission maximum (in CC#N): 527 nm
emission maximum (in CCCCCC): 532 nm
emission maximum (in CCOC(C)=O): 529 nm
emission maximum (in CO): 526 nm
emission maximum (in ClCCl): 531 nm

SMILES: CN(C)c1ccc(-c2cc[n+](C)cc2)s1
emission maximum (in CCO): 507 nm

SMILES: F[B-]1(F)n2c(Oc3ccccc3)c(Cl)c(Br)c2C(Oc2ccccc2)=C2C(Br)=C(Cl)C(Oc3ccccc3)=[N+]21
emission maximum (in ClCCl): 544 nm

SMILES: CCCCCCCCCCCCC1(CCCCCCCCCCCC)c2cc(-c3ccc(C=C4C(=O)c5ccccc5C4=O)cc3)ccc2-c2ccc(-c3ccc(C=C4C(=O)c5ccccc5C4=O)cc3)cc21
emission maximum (in C1CCOC1): 531 nm
emission maximum (in CC(C)=O): 566 nm
emission maximum (in CCCCCC): 463 nm
emission maximum (in CS(C)=O): 598 nm
emission maximum (in Cc1ccccc1): 490 nm
emission maximum (in ClC(Cl)Cl): 529 nm

SMILES: CC1(C)c2ccccc2N(c2c(F)cc(-c3nnc(-c4ccccc4)o3)cc2F)c2ccccc21
emission maximum (in Cc1ccccc1): 490 nm
emission maximum [1]: 495 nm

SMILES: CCOC(=O)c1cc(C(=O)NCc2ccccc2)c2ccc(N(C)C)cc2n1
emission maximum (in CCO): 586 nm

SMILES: CC1=C(Cc2ccccc2)C(C)=[N+]2C1=C(C)c1c(C)c(-c3csc(N4CCOCC4)n3)c(C)n1[B-]2(F)F
emission maximum (in C1CCOC1): 620 nm
emission maximum (in C1COCCO1): 602 nm
emission maximum (in CC#N): 537 nm
emission maximum (in CC(C)O): 543 nm
emission maximum (in CCO): 538 nm
emission maximum (in CCOC(C)=O): 545 nm
emission maximum (in CN(C)C=O): 537 nm
emission maximum (in CO): 539 nm
emission maximum (in CS(C)=O): 548 nm
emission maximum (in Cc1ccccc1): 603 nm
emission maximum (in ClC(Cl)Cl): 607 nm
emission maximum (in ClCCl): 535 nm

SMILES: CC1=CC(C)=[N+]2C1=C(c1c3ccccc3cc3ccccc13)c1c(C)cc(C)n1[B-]2(F)F
emission maximum (in CC#N): 512 nm
emission maximum (in CCCCCC): 515 nm
emission maximum (in CCO): 513 nm
emission maximum (in CN(C)C=O): 518 nm
emission maximum (in Cc1ccccc1): 521 nm
emission maximum (in ClCCl): 517 nm

SMILES: COc1ccc(-c2c3ccc([nH]3)c3nc(c(-c4ccc(C#N)cc4)c4ccc([nH]4)c4ccc([nH]4)c(-c4ccc(OC)cc4)c4ccc2o4)C=C3)cc1
emission maximum (in C1CCOC1): 736 nm
emission maximum (in Cc1ccccc1): 724 nm
emission maximum (in c1ccccc1): 724 nm

SMILES: COc1ccc(C(=O)/C=C/c2ccc(N(C)C)cc2)cc1OC
emission maximum (in C1CCOC1): 500 nm
emission maximum (in CC#N): 525 nm
emission maximum (in CC(=O)O): 513 nm
emission maximum (in CC(C)=O): 511 nm
emission maximum (in CCO): 533 nm
emission maximum (in CN(C)C=O): 523 nm
emission maximum (in CO): 535 nm
emission maximum (in Cc1ccccc1): 468 nm
emission maximum (in ClC(Cl)Cl): 507 nm
emission maximum (in c1ccccc1): 470 nm

Now from value to compound:

emission maximum (in CC#N): 768 nm
SMILES: CC1=CC(/C=C/c2ccc(N(C)C)cc2)=[N+]2C1=C(c1ccc(I)cc1)c1c(C)cc(/C=C/c3ccc(N(C)C)cc3)n1[B-]2(F)F

emission maximum (in ClCCl): 559 nm
SMILES: Cc1ccc(C2=C(c3ccc(C)cc3)c3cccc4c3c(cc3nc5ccccc5nc34)O2)cc1

emission maximum (in ClCCl): 514 nm
SMILES: COc1ccc(-c2c3cc4cc(C)sc4cc3c(-c3ccc(OC)cc3)c3cc4cc(C)sc4cc23)cc1

emission maximum (in ClCCl): 470 nm
SMILES: Cc1cc2ccccc2c2c1c1ccccc1n2-c1ccc(C#N)cc1

emission maximum (in ClCCl): 440 nm
SMILES: C(=C\c1cccc2ccccc12)/c1ncc(-c2ccccc2)o1

emission maximum (in CN(C)C=O): 416 nm
SMILES: Cc1ccc2[nH]c(-c3ccc(-c4ccc(-c5ccc(-c6nc7cc(C)ccc7[nH]6)cc5)cc4)cc3)nc2c1

emission maximum (in ClCCl): 695 nm
SMILES: CC1=c2c3c4cccc5cccc(c=3c(C)[n+]2[B-](F)(F)n2c(C)c3cc6c(-c7ccccc7)c7c(c(-c8ccccc8)c6cc3c21)-c1cccc2cccc-7c12)c54

emission maximum (in CN(C)C=O): 431 nm
SMILES: Cc1ccc2nc(-c3cccc4nc(C)[nH]c(=O)c34)[nH]c2c1

emission maximum (in C1CCOC1): 552 nm
SMILES: Cc1cc(C)c([B-]2(c3c(C)cc(C)cc3C)[O+]=P(c3ccccc3)(c3ccccc3)c3cc(-c4ccc(N(C)C)cc4)sc3-c3sc(-c4ccc(N(C)C)cc4)cc32)c(C)c1

emission maximum (in CC#N): 489 nm
SMILES: COc1ccc(-c2nc(-c3cc(Cl)sc3C)c(-c3cc(Cl)sc3C)[nH]2)cc1

emission maximum (in C1COCCO1): 493 nm
SMILES: COC(=O)c1ccc(/C=C2\C=C(c3ccc([N+](=O)[O-])cc3)OC2=O)cc1

emission maximum (in ClCCl): 424 nm
SMILES: C(#Cc1cc(C#Cc2ccccc2)c(C#Cc2ccccc2)c(C#Cc2ccccc2)c1C#Cc1ccccc1)c1ccccc1

emission maximum (in CCCCCC): 379 nm
emission maximum (in CO): 379 nm
emission maximum (in ClCCl): 380 nm
SMILES: CC(C)(C)c1ccc2ccc3c(C(C)(C)C)ccc4ccc1c2c43

emission maximum (in C1CCCCC1): 422 nm
emission maximum (in CS(C)=O): 599 nm
emission maximum (in ClC(Cl)Cl): 510 nm
SMILES: CN(C)c1ccc(-c2cc(-c3ccc4ccccc4c3)nc(-c3ccccc3)n2)cc1

emission maximum (in C1CCCCC1): 445 nm
emission maximum (in C1CCOC1): 508 nm
emission maximum (in CC#N): 559 nm
emission maximum (in CS(C)=O): 563 nm
emission maximum (in ClCCl): 528 nm
SMILES: c1ccc(N(c2ccccc2)c2ccc(-c3ncnc4ccccc34)cc2)cc1

emission maximum (in C1CCOC1): 345 nm
SMILES: C1=C(c2ccccc2)C(c2ccccc2)=CC1c1ccccc1

emission maximum (in C1CCOC1): 446 nm
SMILES: O=c1oc2cccc3c4cccc5ccc6c7ccccc7c1c(c23)c6c54

emission maximum (in ClCCl): 504 nm
SMILES: Cc1ccc2nc3cc4c(cc3c(-c3ccccc3)c2c1)[Si](C)(C)O[Si]4(C)C
